Paper PMC6563616, “Thymine DNA glycosylase as a novel target for melanoma” (Oncogene, 2019)

Key:
[1] = target: T1, thymine DNA glycosylase (TDG) (Homo sapiens, UniProt Q13569); test: molecular beacon screen with recombinant TDG, confirmed in radioactive DNA glycosylase assay; assay type: biochemical
[2] = target: T1, thymine DNA glycosylase (TDG); test: radioactive DNA glycosylase assay with purified recombinant TDG; TDG/APE1 molecular beacon assay (dose-dependent); 5caC increase in cells; assay type: biochemical

T1 sequence (Q13569 whole entry): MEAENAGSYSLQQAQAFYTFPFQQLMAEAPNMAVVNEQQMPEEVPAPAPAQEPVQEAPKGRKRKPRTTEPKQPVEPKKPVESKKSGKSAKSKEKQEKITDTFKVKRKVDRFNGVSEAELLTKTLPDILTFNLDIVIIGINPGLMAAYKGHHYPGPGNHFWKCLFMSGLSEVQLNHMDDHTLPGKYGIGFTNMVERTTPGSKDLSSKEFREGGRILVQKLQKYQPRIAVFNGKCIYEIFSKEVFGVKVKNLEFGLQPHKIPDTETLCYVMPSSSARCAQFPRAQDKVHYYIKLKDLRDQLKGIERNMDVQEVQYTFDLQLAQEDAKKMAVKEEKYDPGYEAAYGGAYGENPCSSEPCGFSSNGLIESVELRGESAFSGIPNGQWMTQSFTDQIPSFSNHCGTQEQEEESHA

Compound: C=CC1=C(C(=O)O)N2C(=O)[C@@H](NC(=O)/C(=N\OCC(=O)O)c3csc(N)n3)[C@H]2SC1 [cefixime]
- molecular beacon screen with recombinant TDG, confirmed in radioactive DNA glyco [1]: including closantel, juglone, and cefixime, were confirmed as TDG inhibitors in a standard, radioactive DNA glycosylase assay

Compound: Cc1cc(C(C#N)c2ccc(Cl)cc2)c(Cl)cc1NC(=O)c1cc(I)cc(I)c1O (stereo not drawn) [closantel]
- radioactive DNA glycosylase assay with purified recombinant TDG; TDG/APE1 molecu [2]: including closantel, juglone, and cefixime, were confirmed as TDG inhibitors in a standard, radioactive DNA glycosylase assay

Compound: O=C1C=CC(=O)c2c(O)cccc21 [juglone]
- radioactive DNA glycosylase assay with purified recombinant TDG; TDG/APE1 molecu [2]: including closantel, juglone, and cefixime, were confirmed as TDG inhibitors in a standard, radioactive DNA glycosylase assay
